# According to patent publication US20060063143A1, “Immortalized hypothalamic neuronal cell lines” (priority 2002, published 2006):
# What was measured:
# Type in all cases: cell-based, mouse
# N38 hypothalmic cells = assay: Microarray (Affymetrix oligonucleotide arrays) of TCAP-1 treated cells, genes regulated at 16 hours
# Description: RNAs isolated from treated and untreated cells were analyzed on oligonucleotide arrays representing 12,884 mouse genes (Affymetrix, http://www.affymetrix.com). Standard filtering (p<0.005) and hierarchical clustering algorithm (average linage method: GeneSpring software—Silicon Genetics) identified significant changes in the expression of 4, 841/12,885 genes with 166 genes showing 1.5 fold down-regulation and 35 genes up-regulation in the TCAP-1-treated cells compared to the untreated cells. […] A G-protein coupled receptor-related signal transduction pathway is indicated by the regulation of genes, CREM, AKAP8, AKAP95 and PDE6A. […] The upregulation in inducible nitric oxide (INOS), a intracellular voltage-gated chloride channel (CLCN3) and the serotonin transporter (SLC6A4) may reflect the down stream actions of cAMP-mediated signal cascade and indicates the potential for TCAP to be involved in neuronal signaling systems. A role in interneuron communication by TCAP is also indicated by the modulation of genes associated with the regulation of vesicle trafficking. Thus, the TCAP responsive cell lines can be used to screen for modulators of neuronal function that affect growth, differentiation and communication.
# The change in expression levels is indicated relative to the untreated control cell for the same time period of 16 hours. Values>1.5 fold or <0.70 fold were considered significant.
# NPY-17 (N-38) cells = assay: Calcium imaging (Fura2): intracellular calcium response to depolarization by KCl; conditions: KCl 60 mM, NPY-17 cells
# Description: FIG. 15 illustrates the neurosecretory response of NPY-17 (N 38) cells. The effect of the addition of KCl (60 mM) on intracellular calcium levels ([Ca2+]i) for the cells pictured is shown. Images of cells shown in the two panels on the right were obtained as per Example 5. Shown is a representative experiment from 6 experiments, n=116 cells in total (FIG. 15, left panel);
# Since many of the peptides and enzyme present in the individual cell lines are secretory products, one representative cell line, N-38 (Also known as NPY-17), was studied for its response to depolarization by addition of 60 mM KCl. […] NPY-17 neurons were plated in 60 mm plates. Fura-2/AM loaded GT1-7 neurons were continuously monitored by 340/380 ratiometric digital imaging pre (top right panel) and post (lower right panel) stimulation. […]
# Ca2+ imaging experiments were performed with Fura2 (Molecular Probes) using an Olympus IX70 inverted epifluorescence microscope, an Ultrapix camera with an EEV CCD37-10-1-019 chip, a monochromator, and a PC computer with Merlin imaging software (Life Science Resources) using standard Fura2 optics and imaging techniques. […] Intracellular free Ca2+ ([Ca2+]i) concentrations calculated using the Grynkiewicz equation, [Ca2+]i=Kd×□×(R−Rmin)/(Rmax−R) (52).
# NPY-17 cells = assay: Leptin responsiveness: proteomic (mass spectrometry) analysis of nuclear extracts; conditions: 10^-7 M leptin, 20 hours, NPY-17 nuclear extracts, preliminary, +/- protein status
# Description: The NPY-17 cells also express leptin receptors and have been studied for leptin responsiveness using both gene array analysis and proteomic analysis. NPY-17 cells were treated with 10^-7 M leptin (recombinant mouse, Bachem Scientific) for 20 hours. Cells were washed with PBS and harvested through centrifugation. Nuclear extracts were prepared and exposed to mass spectrometry analysis. […] The analysis is not considered quantitative, but initially represents a +/− protein status (i.e. the protein is either present or absent in the control or leptin-treated sample).
# [1] = 1 nM TCAP-1, N38 cells, 16 hours post-treatment
# [2] = 1 nM TCAP-1, N38 cells, treated vs untreated
molecule,measurement,setting,value
"TCAP-1: teneurin C-terminal-associated peptide 1, SEQ ID NO 5 plus amidation signal GRR at C-terminus (QQLLGTGRVQGYDGYFVLSVEQYLELSDSANNIHFMRQSEI; C-terminal GRR amidation signal; Mouse TCAP1)",Fold change PTK7 (Receptor protein tyrosine kinase),"N38 hypothalmic cells; 1 nM TCAP-1, 16 hours, relative to untreated control, cluster Growth/Differentiation, probe 92325",1.53 fold
same,Fold change GDAP10 (Ganglioside induced diff. protein 10),"N38 hypothalmic cells; 1 nM TCAP-1, 16 hours, relative to untreated control, cluster Growth/Differentiation, probe 94192",1.62 fold
same,Fold change MMP10 (Matrix metalloproteinase 10),"N38 hypothalmic cells; 1 nM TCAP-1, 16 hours, relative to untreated control, cluster Growth/Differentiation, probe 94724",0.59 fold
same,Fold change DLP1/2 (DAB2 interacting protein),"N38 hypothalmic cells; 1 nM TCAP-1, 16 hours, relative to untreated control, cluster Growth/Differentiation, probe 97353",0.68 fold
same,Fold change P204 (Interferon activatable protein),"N38 hypothalmic cells; 1 nM TCAP-1, 16 hours, relative to untreated control, cluster Growth/Differentiation, probe 98466",1.85 fold
same,Fold change GAS5 (Growth arrest specific transcript),"N38 hypothalmic cells; 1 nM TCAP-1, 16 hours, relative to untreated control, cluster Growth/Differentiation, probe 98530",0.46 fold
same,Fold change INI1B (Integrase interacting protein 1B),"N38 hypothalmic cells; 1 nM TCAP-1, 16 hours, relative to untreated control, cluster Growth/Differentiation, probe 99924",0.48 fold
same,Fold change MMP1 (Matrix metalloproteinase 1),"N38 hypothalmic cells; 1 nM TCAP-1, 16 hours, relative to untreated control, cluster Growth/Differentiation, probe 100484",0.55 fold
same,Fold change MOP3 (Circadian rhythm regulator),"N38 hypothalmic cells; 1 nM TCAP-1, 16 hours, relative to untreated control, cluster Growth/Differentiation, probe 102382",1.57 fold
same,Fold change CRD-BP (CRD-binding protein),"N38 hypothalmic cells; 1 nM TCAP-1, 16 hours, relative to untreated control, cluster Growth/Differentiation, probe 102627",0.59 fold
same,Fold change CD95 (Fas antigen),"N38 hypothalmic cells; 1 nM TCAP-1, 16 hours, relative to untreated control, cluster Growth/Differentiation, probe 102921",0.61 fold
same,Fold change GBP3 (Guanylate binding protein),"N38 hypothalmic cells; 1 nM TCAP-1, 16 hours, relative to untreated control, cluster Growth/Differentiation, probe 103202",0.63 fold
same,Fold change CAI1 (Casein kinase II),"N38 hypothalmic cells; 1 nM TCAP-1, 16 hours, relative to untreated control, cluster Growth/Differentiation, probe 103441",0.61 fold
same,Fold change SSG1 (Steroid sensitive gene 1),"N38 hypothalmic cells; 1 nM TCAP-1, 16 hours, relative to untreated control, cluster Growth/Differentiation, probe 160298",0.62 fold
same,Fold change SDPR (Serum deprivation response protein),"N38 hypothalmic cells; 1 nM TCAP-1, 16 hours, relative to untreated control, cluster Growth/Differentiation, probe 160373",0.57 fold
same,Fold change ST7 (Suppressor of tumourigenicity),"N38 hypothalmic cells; 1 nM TCAP-1, 16 hours, relative to untreated control, cluster Growth/Differentiation, probe 160591",1.97 fold
same,Fold change PPAN (Peter Pan homologue),"N38 hypothalmic cells; 1 nM TCAP-1, 16 hours, relative to untreated control, cluster Growth/Differentiation, probe 160802",0.62 fold
same,Fold change P202 (202 interferon activatable protein),"N38 hypothalmic cells; 1 nM TCAP-1, 16 hours, relative to untreated control, cluster Growth/Differentiation, probe 161173",0.61 fold
same,Fold change MKI67 (Cell cycle protein regulator),"N38 hypothalmic cells; 1 nM TCAP-1, 16 hours, relative to untreated control, cluster Growth/Differentiation, probe 161931",1.70 fold
same,Fold change CLM2-B (Cytohesin-2),"N38 hypothalmic cells; 1 nM TCAP-1, 16 hours, relative to untreated control, cluster Processing, probe 93492",0.63 fold
same,Fold change ARF1 (ADP ribosylation factor 1),"N38 hypothalmic cells; 1 nM TCAP-1, 16 hours, relative to untreated control, cluster Processing, probe 95156",0.63 fold
same,Fold change YIPID (Rab-mediated membrane transport),"N38 hypothalmic cells; 1 nM TCAP-1, 16 hours, relative to untreated control, cluster Processing, probe 99675",1.88 fold
same,Fold change GP25L2 (gp25L brings cargo forward from ER),"N38 hypothalmic cells; 1 nM TCAP-1, 16 hours, relative to untreated control, cluster Processing, probe 100074",1.53 fold
same,Fold change AP4S1 (Adaptor related protein complex),"N38 hypothalmic cells; 1 nM TCAP-1, 16 hours, relative to untreated control, cluster Processing, probe 104561",1.52 fold
same,Fold change RAB10 (Ras oncogene homologue),"N38 hypothalmic cells; 1 nM TCAP-1, 16 hours, relative to untreated control, cluster Processing, probe 160149",1.62 fold
same,Fold change CAMIII (Calmodulin III),"N38 hypothalmic cells; 1 nM TCAP-1, 16 hours, relative to untreated control, cluster Signalling/Communication, probe 92631",0.53 fold
same,Fold change FNBX (Ferredoxin-NADP reductase),"N38 hypothalmic cells; 1 nM TCAP-1, 16 hours, relative to untreated control, cluster Signalling/Communication, probe 92754",1.61 fold
same,Fold change ALK3 (Bone morphogenic protein receptor),"N38 hypothalmic cells; 1 nM TCAP-1, 16 hours, relative to untreated control, cluster Signalling/Communication, probe 92767",0.60 fold
same,Fold change BMP4 (Bone morphogenic protein-4),"N38 hypothalmic cells; 1 nM TCAP-1, 16 hours, relative to untreated control, cluster Signalling/Communication, probe 93456",0.52 fold
same,Fold change IL1R (Interleukin 1 receptor),"N38 hypothalmic cells; 1 nM TCAP-1, 16 hours, relative to untreated control, cluster Signalling/Communication, probe 93914",0.60 fold
same,Fold change CLCN3 (Chloride channel protein 3),"N38 hypothalmic cells; 1 nM TCAP-1, 16 hours, relative to untreated control, cluster Signalling/Communication, probe 94465",1.66 fold
same,Fold change AKAP95 (A kinase anchor protein 95),"N38 hypothalmic cells; 1 nM TCAP-1, 16 hours, relative to untreated control, cluster Signalling/Communication, probe 95001",0.60 fold
same,Fold change GR (Glucocorticoid receptor),"N38 hypothalmic cells; 1 nM TCAP-1, 16 hours, relative to untreated control, cluster Signalling/Communication, probe 98818",0.66 fold
same,Fold change CREMβ1 (cAMP-responsive element modulator),"N38 hypothalmic cells; 1 nM TCAP-1, 16 hours, relative to untreated control, cluster Signalling/Communication, probe 100533",1.61 fold
same,Fold change PDE6A (cGMP Phosphodiesterase α),"N38 hypothalmic cells; 1 nM TCAP-1, 16 hours, relative to untreated control, cluster Signalling/Communication, probe 100696",1.68 fold
same,Fold change ERK1 (Mitogen activated protein kinase),"N38 hypothalmic cells; 1 nM TCAP-1, 16 hours, relative to untreated control, cluster Signalling/Communication, probe 101834",0.64 fold
same,Fold change BARK1 (β adrenorgic receptor kinase 1),"N38 hypothalmic cells; 1 nM TCAP-1, 16 hours, relative to untreated control, cluster Signalling/Communication, probe 104270",0.61 fold
same,Fold change INOS (Inducible nitric oxide synthetase),"N38 hypothalmic cells; 1 nM TCAP-1, 16 hours, relative to untreated control, cluster Signalling/Communication, probe 104420",1.50 fold
same,Fold change PCDHγ (protocadherin γ),"N38 hypothalmic cells; 1 nM TCAP-1, 16 hours, relative to untreated control, cluster Signalling/Communication, probe 160976",0.42 fold
same,Fold change TTF-1IP (TTF-1 interacting peptide),"N38 hypothalmic cells; 1 nM TCAP-1, 16 hours, relative to untreated control, cluster Signalling/Communication, probe 161019",0.50 fold
same,Fold change AKAP8 (A kinase anchor protein 8),"N38 hypothalmic cells; 1 nM TCAP-1, 16 hours, relative to untreated control, cluster Signalling/Communication, probe 161088",1.58 fold
same,Fold change SLC6A4 (Serotonin transporter),"N38 hypothalmic cells; 1 nM TCAP-1, 16 hours, relative to untreated control, cluster Signalling/Communication, probe 161695",1.53 fold
same,AKAP8 gene expression,N38 hypothalmic cells; [1],upregulation
same,AKAP95 gene expression,N38 hypothalmic cells; [1],Downregulation
same,CD95 gene expression,N38 hypothalmic cells; [1],significant decrease
same,EFK1 gene expression,N38 hypothalmic cells; [1],down regulated
same,GAS5 gene expression,N38 hypothalmic cells; [1],significant decrease
same,GDAP10 gene expression,N38 hypothalmic cells; [1],upregulated
same,MK167 gene expression,N38 hypothalmic cells; [1],upregulated
same,MOP3 gene expression,N38 hypothalmic cells; [1],upregulated
same,RGL gene expression,N38 hypothalmic cells; [1],down regulated
same,SDPR gene expression,N38 hypothalmic cells; [1],significant decrease
same,inducible nitric oxide (INOS) gene expression,N38 hypothalmic cells; [1],upregulation
same,intracellular voltage-gated chloride channel (CLCN3) gene expression,N38 hypothalmic cells; [1],upregulation
same,serotonin transporter (SLC6A4) gene expression,N38 hypothalmic cells; [1],upregulation
same,genes showing 1.5 fold down-regulation,N38 hypothalmic cells; [2],166
same,genes showing up-regulation,N38 hypothalmic cells; [2],35
[Cl-].[K+] [KCl],calcium mobilization,NPY-17 (N-38) cells,significant increase
same,[Ca2+]i peak value,NPY-17 (N-38) cells; representative graph,~450 nM
"leptin: leptin (recombinant mouse, Bachem Scientific) (protein, UniProt P41160 22-167, looked up) Leptin: VPIQKVQDDTKTLIKTIVTRINDISHTQSVSAKQRVTGLDFIPGLHPILSLSKMDQTLAVYQQVLTSLPSQNVLQIANDLENLRDLLHLLAFSKSCSLPQTSGLQKPESLDGVLEASLYSTEVVALSRLQGSLQDILQQLDVSPEC",proteins altered by leptin treatment,NPY-17 cells,approximately 250
